# Key:
# PBMC [1] = experiment: CellTiter-Glo IG50, Example 10 HCC panel, PBMC; format: cell-based; conditions: 72 hours
# Description: (§1) The cells were harvested during the logarithmic growth period and counted. Cell concentrations were adjusted to the appropriate number in appropriate medium and 90 μl cell suspensions were added to 96-well plates. When cells were added, the plates were shaken gently to distribute the cells evenly. Cells were incubated at 37° C. and 5% CO2.
# (§2) 3× serial dilutions of test compound stock solutions with respective solvents were prepared. The stock solutions were diluted with culture medium to generate 10× working solutions of the test compounds. 10 μl of the 10× test compound solutions were added to each well in triplicate for each concentration. Plates were incubated for 72 hours in a humidified incubator at 37° C. and 5% CO2.
# (§3) CellTiter-Glo (CTG) solution was thawed and equilibrated to room temperature. 50 μl of CTG were added to each well and the contents were mixed for 2 minutes on a plate shaker. Cells were incubated for 10 minutes before luminescence signal was recorded using Envision.
# (§4) Cell viability was plotted with GraphPad Prism version 5 and the IG50 was calculated for each cell line. The graphical curves were fitted using a nonlinear regression model with a sigmoidal dose response. IG50 is the concentration of test drug where 100×T/C=50 (the optical density of the test well after a 3-day period of exposure to test drug is T; the control optical density is C).
# (§5) The cells were cultured in an atmosphere of 37° C., 5% CO2 and 95% humidity. All culture media and FBS were purchased from GIBCO, Hyclone or Sigma, USA. The media used for cell culture is described in the table below.
# (§6) Following the cell culture protocol and data analysis method described in Example 8, the following IG50 results (in μM) were observed: […]
# Hep3B [2] = experiment: CellTiter-Glo IG50, Example 10 HCC panel, Hep3B; format: cell-based; conditions: Homo sapiens, 72 hours
# Description: as §1, §2, §3, §4, §5, §6
# PBMC [3] = experiment: CellTiter-Glo IG50, Example 9 HCC panel, PBMC; format: cell-based; conditions: 72 hours
# Description: as §1, §2, §3, §4, §5
# (§7) Following the cell culture protocol and data analysis methods described in Example 8, the following IG50 results (in μM) were observed: […]
# HUH7 [4] = experiment: CellTiter-Glo IG50, Example 10 HCC panel, HUH7; format: cell-based; conditions: Homo sapiens, Huh-7, HUH7, 72 hours
# Description: as §1, §2, §3, §4, §5, §6
# SNU878 [5] = experiment: CellTiter-Glo IG50, Example 10 HCC panel, SNU878; format: cell-based; conditions: SNU878, 72 hours
# Description: as §1, §2, §3, §4, §5, §6
# Hep3B [6] = experiment: CellTiter-Glo IG50, Example 8, Hep3B; format: cell-based; conditions: Homo sapiens, 72 hours
# Description: (§8) Various pancreatic, liver, colon, breast, and stomach cancer cell lines were exposed to the NF-κB inhibitors of the present invention, including, for example, IT-839, IT-843, IT-848, and IT-878, and assessed for IG50 in the CellTiter Glo 2.0 assay.
# as §5, §1, §2, §3, §4
# JHH5 [7] = experiment: CellTiter-Glo IG50, Example 9 HCC panel, JHH5; format: cell-based; conditions: JHH5, 72 hours
# Description: as §1, §2, §3, §4, §5, §7
# JHH5 [8] = experiment: CellTiter-Glo IG50, Example 10 HCC panel, JHH5; format: cell-based; conditions: JHH5, 72 hours
# Description: as §1, §2, §3, §4, §5, §6
# HepG2 [9] = experiment: CellTiter-Glo IG50, Example 10 HCC panel, HepG2; format: cell-based; conditions: Homo sapiens, HepG2, 72 hours
# Description: as §1, §2, §3, §4, §5, §6
# Hep3B [10] = experiment: CellTiter-Glo IG50, Example 9 HCC panel, Hep3B; format: cell-based; conditions: Homo sapiens, 72 hours
# Description: as §1, §2, §3, §4, §5, §7
# PLC/PRF/5 [11] = experiment: CellTiter-Glo IG50, Example 10 HCC panel, PLC/PRF/5; format: cell-based; conditions: Homo sapiens, PLC/PRF/5, 72 hours
# Description: as §1, §2, §3, §4, §5, §6
# SNU878 [12] = experiment: CellTiter-Glo IG50, Example 9 HCC panel, SNU878; format: cell-based; conditions: SNU878, 72 hours
# Description: as §1, §2, §3, §4, §5, §7
# HepG2 [13] = experiment: CellTiter-Glo IG50, Example 8, HepG2; format: cell-based; conditions: Homo sapiens, HepG2, 72 hours
# Description: as §8, §5, §1, §2, §3, §4
# HUH7 [14] = experiment: CellTiter-Glo IG50, Example 9 HCC panel, HUH7; format: cell-based; conditions: Homo sapiens, Huh-7, HUH7, 72 hours
# Description: as §1, §2, §3, §4, §5, §7
# HepG2 [15] = experiment: CellTiter-Glo IG50, Example 9 HCC panel, HepG2; format: cell-based; conditions: Homo sapiens, HepG2, 72 hours
# Description: as §1, §2, §3, §4, §5, §7
# PLC/PRF/5 [16] = experiment: CellTiter-Glo IG50, Example 9 HCC panel, PLC/PRF/5; format: cell-based; conditions: Homo sapiens, PLC/PRF/5, 72 hours
# Description: as §1, §2, §3, §4, §5, §7
# PLC/PRF/5 [17] = experiment: CellTiter-Glo IG50, Example 8, PLC/PRF/5; format: cell-based; conditions: Homo sapiens, PLC/PRF/5, 72 hours
# Description: as §8, §5, §1, §2, §3, §4
# Capan-1 = experiment: CellTiter-Glo IG50, Example 8, Capan-1; format: cell-based; conditions: Homo sapiens, Capan-1, 72 hours
# Description: as §8, §5, §1, §2, §3, §4
# T47D = experiment: CellTiter-Glo IG50, Example 8, T47D; format: cell-based; conditions: Homo sapiens, 72 hours
# Description: as §8, §5, §1, §2, §3, §4
# PANC-1 = experiment: CellTiter-Glo IG50, Example 8, PANC-1; format: cell-based; conditions: Homo sapiens, PANC-1, 72 hours
# Description: as §8, §5, §1, §2, §3, §4
# MCF-7 = experiment: CellTiter-Glo IG50, Example 8, MCF-7; format: cell-based; conditions: Homo sapiens, MCF7, MCF-7, 72 hours
# Description: as §8, §5, §1, §2, §3, §4
# MKN45 = experiment: CellTiter-Glo IG50, Example 8, MKN45; format: cell-based; conditions: Homo sapiens, MKN-45, MKN45, 72 hours
# Description: as §8, §5, §1, §2, §3, §4
# MIAPACA-2 = experiment: CellTiter-Glo IG50, Example 8, MIAPACA-2; format: cell-based; conditions: Homo sapiens, MIA PaCa-2, MIAPACA-2, 72 hours
# Description: as §8, §5, §1, §2, §3, §4
# AGS = experiment: CellTiter-Glo IG50, Example 8, AGS; format: cell-based; conditions: Homo sapiens, 72 hours
# Description: as §8, §5, §1, §2, §3, §4
# HCT116 = experiment: CellTiter-Glo IG50, Example 8, HCT116; format: cell-based; conditions: Homo sapiens, HCT-116, HCT116, 72 hours
# Description: as §8, §5, §1, §2, §3, §4
# KATO III = experiment: CellTiter-Glo IG50, Example 8, KATO III; format: cell-based; conditions: Homo sapiens, 72 hours
# Description: as §8, §5, §1, §2, §3, §4
# HT-29 = experiment: CellTiter-Glo IG50, Example 8, HT-29; format: cell-based; conditions: Homo sapiens, HT-29, 72 hours
# Description: as §8, §5, §1, §2, §3, §4
# LoVo = experiment: CellTiter-Glo IG50, Example 8, LoVo; format: cell-based; conditions: Homo sapiens, 72 hours
# Description: as §8, §5, §1, §2, §3, §4
# MDA-MB-231 = experiment: CellTiter-Glo IG50, Example 8, MDA-MB-231; format: cell-based; conditions: Homo sapiens, MDA-MB-231, 72 hours
# Description: as §8, §5, §1, §2, §3, §4
# NF-κB = NF-κB GFP assay in NFκB/Jurkat/GFP transcriptional reporter cells stimulated with TNF-α; format: cell-based; conditions: Homo sapiens, TNF-α 5 ng/ml, 24 hours, read-out: NF-KB GFP IC50
# Description: NFκB/Jurkat/GFP transcriptional reporter cell line was obtained from SBI System Biosciences. NF-κB/Jurkat/GFP™ Reporter cells (5×10^5 cells) were plated at a concentration of 1 million cells/ml into each well of a 24-well plate. TNF-α (5 ng/ml) was added. Compounds were added via serial dilutions to corresponding wells. After 24 hours, 100 μl of the cells were transferred to a well of a Costar® UV plate (96 well, No lid, w/UV Transparent Flat Bottom, Corning, N.Y., Cat #3635) and the intensity of GFP fluorescence was measured (Excitation 485+/−20, Emission 528+/−20) in a Synergy™ HT Multi-Detection Microplate Reader (BioTech, Winooski, Vt.). The intensities of GFP measured were plotted against the […].
# c-Rel protein = target: T1, c-Rel protein (Homo sapiens, UniProt Q04864); experiment: Electrophoretic Mobility Shift Assay (EMSA), c-Rel binding to CD28RE oligonucleotide; conditions: 10 nM c-Rel protein
# T1 sequence (Q04864 1-619): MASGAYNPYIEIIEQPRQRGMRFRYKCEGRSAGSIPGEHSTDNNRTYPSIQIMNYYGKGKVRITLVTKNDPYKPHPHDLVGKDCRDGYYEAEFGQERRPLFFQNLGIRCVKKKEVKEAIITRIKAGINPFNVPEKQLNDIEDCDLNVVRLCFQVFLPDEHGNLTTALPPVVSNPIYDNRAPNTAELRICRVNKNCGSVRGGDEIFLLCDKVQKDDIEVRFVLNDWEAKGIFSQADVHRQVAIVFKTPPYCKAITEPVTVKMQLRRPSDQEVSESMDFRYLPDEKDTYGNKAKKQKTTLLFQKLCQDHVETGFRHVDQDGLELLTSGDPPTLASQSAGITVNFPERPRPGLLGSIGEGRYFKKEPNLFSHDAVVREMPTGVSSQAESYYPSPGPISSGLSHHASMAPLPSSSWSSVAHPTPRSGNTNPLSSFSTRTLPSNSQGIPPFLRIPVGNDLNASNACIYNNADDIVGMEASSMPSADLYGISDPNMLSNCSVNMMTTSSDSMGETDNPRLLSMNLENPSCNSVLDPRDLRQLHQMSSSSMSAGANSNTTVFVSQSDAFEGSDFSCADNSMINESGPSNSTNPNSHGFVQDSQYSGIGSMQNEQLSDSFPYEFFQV
# Description: DNA binding reaction (20 μL) was carried out in 1×DNA Binding Buffer (10 mM Tris, 40 mM NaCl, 1 mM EDTA, 4% glycerol) with 10 nM c-Rel protein and 0.5 ng phosphor-labeled CD28RE oligonucleotide for 10 minutes at room temperature in 96-well plates. Test compounds, in serial dilutions, were added into each well, and further incubated for 15 minutes before loading onto native 5% polyacrylamide gel. Electrophoresis proceeded for 2.5 hours at 160V. Radioactive signals were quantified using Phospho-Imager. IC50 of compounds of example 1 to 75 were determined by quantifying the intensity of Rel/NF-κB inhibition in EMSA using phospho-imager. An example of EMSA data of the present invention is shown for compound 6 in FIG. 2.
smiles,measurement,setting,value
"CNC(=O)c1cc(Oc2ccc(NC(=O)Nc3ccc(Cl)c(C(F)(F)F)c3)cc2)ccn1 [Sorafenib, sorafenib, reference compound]",IC50,PBMC [1],14.4 µM
same,IC50,Hep3B [2],6.42 µM
same,IC50,PBMC [3],19.5 µM
same,IC50,HUH7 [4],5.14 µM
same,IC50,SNU878 [5],10.6 µM
same,IC50,Hep3B [6],7.49 µM
same,IC50,JHH5 [7],3.21 µM
same,IC50,JHH5 [8],7.13 µM
same,IC50,HepG2 [9],4.37 µM
same,IC50,Hep3B [10],7.57 µM
same,IC50,PLC/PRF/5 [11],10.1 µM
same,IC50,SNU878 [12],12.7 µM
same,IC50,HepG2 [13],5.14 µM
same,IC50,HUH7 [14],6.57 µM
same,IC50,HepG2 [15],3.15 µM
same,IC50,PLC/PRF/5 [16],10.8 µM
same,IC50,PLC/PRF/5 [17],10.8 µM
CCCCCOc1ccc2cc3c(=O)[nH]c(=O)nc-3oc2c1Cl [IT-843],IC50,Capan-1,> 16 µM
same,IC50,PBMC [3],1.09 µM
same,IC50,T47D,4.96 µM
same,IC50,PANC-1,5.54 µM
same,IC50,Hep3B [6],1.42 µM
same,IC50,JHH5 [7],13.3 µM
same,IC50,MCF-7,6.81 µM
same,IC50,Hep3B [10],3.6 µM
same,IC50,MKN45,> 16 µM
same,IC50,SNU878 [12],> 16 µM
same,IC50,HepG2 [13],3.94 µM
same,IC50,HUH7 [14],5.16 µM
same,IC50,MIAPACA-2,10.2 µM
same,IC50,HepG2 [15],4.53 µM
same,IC50,AGS,4.44 µM
same,IC50,HCT116,9.4 µM
same,IC50,KATO III,> 16 µM
same,IC50,PLC/PRF/5 [16],> 16 µM
same,IC50,HT-29,6.61 µM
same,IC50,LoVo,2.89 µM
same,IC50,PLC/PRF/5 [17],> 16 µM
same,IC50,MDA-MB-231,2.68 µM
O=C(O)CCCCOc1ccc2cc3c(=O)[nH]c(=O)nc-3oc2c1Cl [compound 54],IC50,NF-κB,< 20 µM
same,IC50,c-Rel protein,< 5 µM

# Reference: patent US11083729B2, “Methods of treating cancer with small molecule NF-κB inhibitors” (ImmuneTarget, Inc., priority 2017, dated 2021)
